Like-named read-outs stand apart in the source and are kept apart here.
Legend:
[1] = test system: Pseudomonas aeruginosa; assay: PI staining, broad spectrum activity; format: cell-based; conditions: 50 μg/ml
[2] = test system: Pseudomonas aeruginosa; assay: CFU determination, broad spectrum activity; format: cell-based; conditions: 50 μg/ml
[3] = test system: Pseudomonas syringae pv tomato DC3000; assay: PI staining, broad spectrum activity; format: cell-based; conditions: 50 μg/ml
[4] = test system: Pseudomonas syringae pv tomato DC3000; assay: CFU determination, broad spectrum activity; format: cell-based; conditions: 50 μg/ml, Pseudomonas syringae pv tomato DC3000, untreated 10^7
[5] = test system: Xanthomonas 2880; assay: PI staining, broad spectrum activity; format: cell-based; conditions: 50 μg/ml
[6] = test system: Xanthomonas 2880; assay: CFU determination, broad spectrum activity; format: cell-based; conditions: 50 μg/ml, Xanthomonas 2880, untreated 10^7
[7] = test system: Clavibacter michigense; assay: PI staining, broad spectrum activity; format: cell-based; conditions: 50 μg/ml
[8] = test system: Clavibacter michigense; assay: CFU determination, broad spectrum activity; format: cell-based; conditions: 50 μg/ml, untreated 10^9
[9] = test system: Curtobacterium, flaccumfaciens; assay: PI staining, broad spectrum activity; format: cell-based; conditions: 50 μg/ml
[10] = test system: Curtobacterium, flaccumfaciens; assay: CFU determination, broad spectrum activity; format: cell-based; conditions: 50 μg/ml, untreated 10^9
[11] = test system: Bacillus subtilis; assay: PI staining, broad spectrum activity; format: cell-based; conditions: 50 μg/ml
[12] = test system: Bacillus subtilis; assay: CFU determination, broad spectrum activity; format: cell-based; conditions: 50 μg/ml, untreated 10^6
[13] = test system: Staphylococcus aureus; assay: PI staining, broad spectrum activity; format: cell-based; conditions: 50 μg/ml
[14] = test system: Staphylococcus aureus; assay: CFU determination, broad spectrum activity; format: cell-based; conditions: 50 μg/ml, untreated 10^6
[15] = test system: Aspergillus flavus; assay: Antifungal activity in 96-well microtiter plates; format: cell-based; set-up: key: +++: high sensitivity, no hyphal growth; ++: medium sensitivity; +: low sensitivity; −: no effect; conditions: 24 h
[16] = test system: Aspergillus niger; assay: Antifungal activity in 96-well microtiter plates; format: cell-based; set-up: key: +++: high sensitivity, no hyphal growth; ++: medium sensitivity; +: low sensitivity; −: no effect; conditions: 24 h
[17] = test system: Candida albicans; assay: Antifungal activity in 96-well microtiter plates; format: cell-based; set-up: key: +++: high sensitivity, no hyphal growth; ++: medium sensitivity; +: low sensitivity; −: no effect; conditions: 24 h
[18] = test system: Candida crusei; assay: Antifungal activity in 96-well microtiter plates; format: cell-based; set-up: key: +++: high sensitivity, no hyphal growth; ++: medium sensitivity; +: low sensitivity; −: no effect; conditions: 24 h
[19] = test system: Candida parapsilosis; assay: Antifungal activity in 96-well microtiter plates; format: cell-based; set-up: key: +++: high sensitivity, no hyphal growth; ++: medium sensitivity; +: low sensitivity; −: no effect; conditions: 24 h
[20] = test system: Rhizopus stolonifer var. stolonifer; assay: Antifungal activity in 96-well microtiter plates; format: cell-based; set-up: key: +++: high sensitivity, no hyphal growth; ++: medium sensitivity; +: low sensitivity; −: no effect; conditions: 24 h
[21] = test system: Fusarium graminearum; format: cell-based; set-up: key: +++: high sensitivity, no hyphal growth; ++: medium sensitivity; +: low sensitivity; −: no effect; conditions: 24 h
[22] = test system: Fusarium graminearum; format: cell-based; conditions: 50 μg/ml, same at 24 h and 48 h, FIGS. 11C and 11F
[23] = test system: Sinorhizobium meliloti AK631; assay: PI staining of Sinorhizobium meliloti; conditions: 50 μg/ml, Sinorhizobium meliloti (AK631)
[24] = test system: Sinorhizobium meliloti AK631; assay: CFU determination of Sinorhizobium meliloti; conditions: for CFU % / CFU (colony/ml): 1 hr; for CFU determination (colony formation): 3 hours, 2-3×10^6 bacteria, FIG. 2B; for CFU: Sinorhizobium meliloti (AK631), untreated 10^7
[25] = test system: Arabidopsis (ecotype: wassilewskiya); assay: Arabidopsis germination and seedling growth; conditions: 50 μg/ml=42 μM

For “NCR247: cationic NCR peptide (RNGCIVDPRCPYQQCRRPLYCRRR; Peptide derived from Medicago truncatula)”, which PI [1] is on record?
Its PI is “PI: 15%”.

What about the “CFU (FIG. 10)” value ([2]; strain resistant to conventional antibiotics) of the same substance?
The value was “completely eradicated”.

What about the PI [3] of the same substance?
The PI was “PI: 60%”.

What about the CFU [4] of the same substance?
Its CFU is “CFU: 0”.

What about the PI [5] of the same substance?
Its PI is “PI: 48%”.

What about the CFU [6] of the same substance?
Its CFU is “CFU: 0”.

What about the PI [7] of the same substance?
The PI was “PI: 50%”.

What about the CFU [8] of the same substance?
The CFU was “CFU: 0”.

What about the PI [9] of the same substance?
Its PI is “PI: 27%”.

What about the CFU [10] of the same substance?
The CFU was “CFU: 0”.

And the PI [11]?
Its PI is “PI: 18%”.

What about the CFU [12] of the same substance?
Its CFU is “CFU: 10^6”.

And the PI [13]?
The PI was “PI: 30%”.

And the CFU [14]?
The CFU was “CFU: 10^5”.

What about the “Fungal (hyphal) growth, sensitivity” value ([15]; 25 μg/ml) of the same substance?
The value was “+++”.

What about the “Fungal (hyphal) growth, sensitivity” value ([15]; 50 μg/ml) of the same substance?
The value was “+++”.

And the “Fungal (hyphal) growth, sensitivity” value ([15]; 100 μg/ml)?
Its value is “+++”.

What about the “Fungal (hyphal) growth, sensitivity” value ([16]; 25 μg/ml) of the same substance?
The value was “+++”.

And the “Fungal (hyphal) growth, sensitivity” value ([16]; 50 μg/ml)?
Its value is “+++”.

And the “Fungal (hyphal) growth, sensitivity” value ([16]; 100 μg/ml)?
Its value is “+++”.

What about the “Fungal (hyphal) growth, sensitivity” value ([17]; 25 μg/ml) of the same substance?
The value was “+++”.

And the “Fungal (hyphal) growth, sensitivity” value ([17]; 50 μg/ml)?
Its value is “+++”.

And the “Fungal (hyphal) growth, sensitivity” value ([17]; 100 μg/ml)?
Its value is “+++”.

And the “Fungal (hyphal) growth, sensitivity” value ([18]; 25 μg/ml)?
The value was “+++”.

What about the “Fungal (hyphal) growth, sensitivity” value ([18]; 50 μg/ml) of the same substance?
The value was “+++”.

What about the “Fungal (hyphal) growth, sensitivity” value ([18]; 100 μg/ml) of the same substance?
The value was “+++”.

What about the “Fungal (hyphal) growth, sensitivity” value ([19]; 25 μg/ml) of the same substance?
Its value is “+++”.

What about the “Fungal (hyphal) growth, sensitivity” value ([19]; 50 μg/ml) of the same substance?
The value was “+++”.

And the “Fungal (hyphal) growth, sensitivity” value ([19]; 100 μg/ml)?
The value was “+++”.

What about the “Fungal (hyphal) growth, sensitivity” value ([20]; 25 μg/ml) of the same substance?
The value was “+++”.

And the “Fungal (hyphal) growth, sensitivity” value ([20]; 50 μg/ml)?
The value was “+++”.

What about the “Fungal (hyphal) growth, sensitivity” value ([20]; 100 μg/ml) of the same substance?
Its value is “+++”.

And the “Fungal (hyphal) growth, sensitivity” value ([21]; 25 μg/ml)?
The value was “++”.

And the “Fungal (hyphal) growth, sensitivity” value ([21]; 50 μg/ml)?
The value was “++”.

What about the “Fungal (hyphal) growth, sensitivity” value ([21]; 100 μg/ml) of the same substance?
The value was “++”.

What about the “spores and hyphae development” value [22] of the same substance?
Its value is “inhibits the spores and hyphae development”.

And the PI [23]?
Its PI is “PI: 70%”.

And the CFU % ([24]; 20 μg/ml)?
Its CFU % is 0%.

And the “CFU (colony/ml)” value ([24]; 20 μg/ml)?
Its value is 0 colony/ml.

What about the CFU % ([24]; 50 μg/ml) of the same substance?
Its CFU % is 0%.

What about the “CFU (colony/ml)” value ([24]; 50 μg/ml) of the same substance?
Its value is 0 colony/ml.

And the “CFU determination (colony formation)” value ([24]; 50 μg/ml)?
The value was “none formed colony”.

What about the CFU ([24]; 50 μg/ml) of the same substance?
The CFU was “CFU: 0”.

And the “eradication of the bacteria” value ([24]; from the low dose of 20 μg/ml)?
Its value is “able to eradicate the bacteria in less than an hour”.

What does the source list for Polymyxin B [reference compound]?
PI [1]: PI: 50%; CFU ([2]; Pseudomonas aeruginosa, untreated 10^7): CFU: 0; PI [3]: PI: 95%; CFU [4]: CFU:0; PI [5]: PI: 100%; CFU [6]: CFU: 0; PI [7]: PI: 60%; CFU [8]: CFU: 0; PI [9]: PI: 60%; CFU [10]: CFU: 0; PI [11]: PI: 60%; CFU [12]: CFU: 10^6; PI [13]: PI: 75%; CFU [14]: CFU: 10^6; PI [23]: PI: 70%; CFU % ([24]; 50 μg/ml): 0%; CFU (colony/ml) ([24]; 50 μg/ml): 0 colony/ml; CFU determination (colony formation) ([24]; 50 μg/ml): none formed colony; CFU ([24]; 50 μg/ml): CFU: 10^5; effect on plant growth [25]: inhibits growth
